The results in this text go back to US8178506B2, “Oligomeric compounds and compositions for use in modulation of small non-coding RNAs” (Regulus Therapeutics Inc., priority 2003, dated 2012).

The test system of data set [1] is pGL3-Control luciferase reporter. Kind of data set: pGL3-Control luciferase assay in HeLa cells (reporter without miRNA binding site). The format is cell-based, human. The following applies: for luciferase expression: 24 hours; for luciferase expression (% lucif. only control): pGL3-Control, 48 hours. From the text:
In one embodiment, an expression system based on the pGL3-Control (Promega Corp., Madison Wis.) vector containing a CMV promoter controlling expression of a luciferase reporter sequence was used in transient transfections of HeLa cells with plasmids expressing miRNA or pri-miRNA mimics. To assess the ability of miRNA mimics to bind and regulate the expression of the luciferase reporter gene, two reporter plasmids were constructed: 1) a synthetic DNA fragment comprising two sites perfectly complementary to mir-143 were inserted into the pGL3-Control luciferase reporter vector, to create the pGL3-mir-143 sensor plasmid, and 2) a DNA fragment comprising the 3′-UTR of the LIM domain only 4 (LMO4) gene (predicted to be regulated by mir-143) was inserted into pGL3-Control to create pGL3-LMO4; this fragment was PCR-amplified using a primer beginning at position 1261 of the LMO4 sequence (GenBank Accession NM_006769.2, incorporated herein as SEQ ID: 809) and the downstream primer hybridizing to the poly-A tail. In each of these plasmids, the target site was placed downstream of the luciferase coding sequence and upstream of the polyadenylation signal in the 3′-UTR of the luciferase reporter vector. The unmodified pGL3-Control luciferase reporter vector was used as a control.
HeLa cells were routinely cultured and passaged as described, and on the day before transfection with expression or reporter plasmids, the HeLa cells were seeded onto 24-well plates 50,000 cells/well. Cells were transfected according to standard published procedures with various combinations of plasmids using 2 μg Lipofectamine™ 2000 Reagent (Invitrogen) per μg of plasmid DNA, or, when transfecting oligomeric compounds, 1.25 μg of Lipofectamine™ 2000 Reagent per 100 nM oligonucleotide or double-stranded RNA. The luciferase signal in each well was normalized to the Renilla luciferase (RL) activity produced from a co-transfected plasmid, pRL-CMV, which was transfected at 0.5 μg per well. Cells were treated at various dosages (4 nM, 20 nM, and 100 nM) with the following oligomeric compound mimics: 1) “ds-mir-143,” 2) “ds-Control,” 3) “pCR3-pri-mir-143,” or 4) “pri-mir-control,” as described supra. In accordance with methods described in Example 12, supra, a luciferase assay was performed 48-hours after transfection. Briefly, cells were lysed in passive lysis buffer (PLB; Promega), and 20 ul of the lysate was then assayed for RL activity using a Dual Luciferase Assay kit (Promega) according to the manufacturer's protocol. The results below are an average of three trials and are presented as percent pGL3-Control luciferase expression normalized to pRL-CMV expression (RL).
An expression system based on the pGL3-Control (Promega Corp., Madison Wis.) reporter vector and comprising predicted miRNA binding sites was used in transient transfections of HeLa cells with plasmids expressing oligomeric compounds mimicking miRNAs, pre-miRNAs or pri-miRNAs in order to assess the ability of these miRNA mimics to bind and regulate the expression of the luciferase reporter. The effect of increasing the copy number of the miRNA-binding site in the target was also tested by including multiple binding sites in artificial reporter constructs. It is understood that the presence of multiple miRNA-binding sites in a target can include binding sites for different miRNAs.
HeLa cells were routinely cultured and passaged as described. In some embodiments, HeLa cells were transfected with 0.05 μg of the relevant pGL3-sensor plasmid and 0.01 μg pRL-CMV plasmid. Additionally, in some embodiments, cells were treated at various dosages (11 nM, 33 nM, and 100 nM) with the following oligomeric compound mimics: 1) ds-mir-143, or 2) ds-Control as described. In accordance with methods described in Example 12, a luciferase assay was performed 24-hours after transfection. The results, shown in Tables 40 and 41, are an average of three trials. […]

In data set [2] the test system is mir-143 miRNA binding site. Kind of data set: GFP mir-143 sensor reporter in T-REx-HeLa cells. The format is cell-based, human. The note with it: T-REx-HeLa, 24 hours post-transfection. From the text:
Reporter systems have been developed herein to assess the ability of miRNA mimics to provoke a gene silencing response and to assess whether antisense oligomeric compounds targeting miRNAs can inhibit gene silencing activity. The T-REx™-HeLa cell line (Invitrogen Corp., Carlsbad, Calif.) was used for either stable or transient transfections with plasmids constitutively expressing miRNAs, pre-miRNAs, pri-miRNAs or mimics thereof, and, in some cases, antisense oligomeric compounds targeting the expressed miRNA were also transfected into the cells. It is understood that other mammalian cells lines can also be used in this reporter system. T-REx™-HeLa cells were routinely cultured in DMEM, high glucose (Invitrogen Corporation, Carlsbad, Calif.), supplemented with 10% fetal bovine serum (Invitrogen Corporation). […] Cells were harvested when they reached 90% confluence, and on the day before transfection with expression or reporter plasmids (described in detail below), the T-REx™-HeLa cells were seeded onto 24-well plates at 50,000 cells/well. The following day, cells were transfected according to standard published procedures with various combinations of plasmids using 2 μg Lipofectamine™ 2000 Reagent (Invitrogen) per μg of plasmid DNA. When transfecting oligomeric compounds, 1-3 μg of Lipofectamine™ 2000 Reagent was used per 100 nM oligomeric compound.
Plasmids used are as follows: The pcDNA3.1©/NT-GFP (Invitrogen) plasmid, containing a CMV promoter controlling expression of a GFP reporter sequence at the N-terminus of the transcription start site was used as a control plasmid. The pcDNA3.1©/NT-GFP-mir-143 sensor plasmid contains (in addition to the elements above) three 22-nucleotide sites encoding the mir-143 miRNA binding site, downstream of the GFP coding sequence and upstream of the polyadenylation signal. The pCR3-pri-mir-143 plasmid (“pri-mir-143”) is a CMV promoter-driven constitutive expression plasmid which expresses the 110-nucleotide mir-143 pri-miRNA sequence (SEQ ID NO: 38), to act as a mir-143 pri-miRNA mimic. The pCR3-pri-mir control (“pri-mir-control”) is a CMV promotor-driven constitutive expression plasmid which is designed to express a similar 110-nucleotide pri-miRNA sequence ([…] CAGC; SEQ ID NO: 862) wherein the mature mir-143 sequence has been replaced with an unrelated sequence and the predicted complementary strand opposite it within the pri-miRNA structure is replaced with a nearly complementary sequence in order to preserve the stem loop as well as the bulge structure of the natural mir-143 pri-miRNA. Additionally, in order to test the effect of an oligomeric compound targeting a miRNA, the T-REx™-HeLa cells were also transfected with the uniform 2′-MOE phosphorothioate (PS) antisense oligomeric compound ISIS Number 327901 (SEQ ID NO: 319), targeted to mir-143 previously described.
Twenty-four hours post-transfection, cells were trypsinized and GFP fluorescence was analyzed by flow cytometry.

With “ds-mir-143: double-stranded RNA of ISIS 342199 hybridized to its perfect complement ISIS 342200 (sense UGAGAUGAAGCACUGUAGCUCA; antisense UGAGCUACAGUGCUUCAUCUCA; RNA, backbone not given here)”, the luciferase expression was 90.7 percent untreated control in data set [1] (Table 40, pGL3-Control, 11 nM); 94.2 percent untreated control in data set [1] (Table 40, pGL3-Control, 33 nM); 72.5 percent untreated control in data set [1] (Table 40, pGL3-Control, 100 nM); 110.2 percent untreated control in data set [1] (Table 41, pGL3-Control, 11 nM); 124.3 percent untreated control in data set [1] (Table 41, pGL3-Control, 33 nM); 92.3 percent untreated control in data set [1] (Table 41, pGL3-Control, 100 nM). For the same substance, the “luciferase expression (% lucif. only control)” value amounted to 101.5 % lucif. only control in data set [1] (4 nM), 123.8 % lucif. only control in data set [1] (20 nM) and 131.8 % lucif. only control in data set [1] (100 nM). The “expression of GFP from the pcDNA3.1/NT-GFP-mir-143 sensor plasmid” value in data set [2] is listed as “inhibited expression of GFP from the sensor plasmid in a dose dependent manner”.
